Measurements: patent publication US9987278B2, “Pharmaceutical composition for treating FLT3 mutation-positive cancer, mutant FLT3 inhibitor and uses thereof” (FUJIFILM Corporation, priority 2014, dated 2018)
pIC50: −log10 of the molar value.

Molecular target: mutant FLT3 protein (FLT3 D835Y) (Homo sapiens (Human), UniProt P36888, D835Y)
Assay: Mutant FLT3 (FLT3 D835Y) enzyme inhibition assay
Assay type: biochemical
Settings: ATP 15 μmol/L, read-out: IC50 value for an enzymatic activity of a mutant FLT3 protein

pIC50 | Structure (SMILES)
8.00 to 9.00 | C=CC(=O)NCC(=O)Nc1cccc(CNC(=O)c2cnc(NCCc3ccncc3)nc2NCCC)c1 [Compound 1]
8.00 to 9.00 | C=CC(=O)NCC(=O)Nc1ccccc1CNC(=O)c1cnc(NCCc2ccncc2)nc1NCCC [Compound 3]
8.00 to 9.00 | C=CC(=O)NCC(=O)Nc1cc(Cl)cc(NC(=O)c2cnc(NCCc3ccncc3)nc2NCCC)c1 [Compound 4]
> 9.00 | CCCNc1nc(NCCc2ccncc2)ncc1C(=O)Nc1cccc(NC(=O)CNC(=O)/C=C/CN(C)C)c1 [Compound 5]
8.00 to 9.00 | C=CC(=O)NCCOc1cccc(NC(=O)c2cnc(NCCc3ccncc3)nc2NCCC)c1 [Compound 6]
> 9.00 | C=CC(=O)NCC(=O)NCCCNC(=O)c1cnc(NCCc2ccncc2)nc1NCCC [Compound 7]
8.00 to 9.00 | C=CC(=O)N[C@H](C)C(=O)Nc1cccc(NC(=O)c2cnc(NCCc3ccncc3)nc2NCCC)c1 [Compound 8]
> 9.00 | C=CC(=O)NC(C)(C)C(=O)Nc1cccc(NC(=O)c2cnc(NCCc3ccncc3)nc2NCCC)c1 [Compound 9]
> 9.00 | C=CC(=O)N(C)CC(=O)Nc1cccc(NC(=O)c2cnc(NCCc3ccncc3)nc2NCCC)c1 [Compound 10]
8.00 to 9.00 | C=CC(=O)NCC(=O)N(C)c1cccc(NC(=O)c2cnc(NCCc3ccncc3)nc2NCCC)c1 [Compound 11]
8.00 to 9.00 | CCCNc1nc(NCCc2ccncc2)ncc1C(=O)Nc1cccc(NC(=O)CNC(=O)/C=C/CN2CCN(C)CC2)c1 [Compound 12]
8.00 to 9.00 | CCCNc1nc(NCCc2ccncc2)ncc1C(=O)Nc1cccc(NC(=O)CNC(=O)/C=C/CN2CCOCC2)c1 [Compound 13]
> 9.00 | CCCNc1nc(NCCc2ccncc2)ncc1C(=O)Nc1cccc(NC(=O)CNC(=O)/C=C/CN2CCN(CCO)CC2)c1 [Compound 14]
8.00 to 9.00 | C=CC(=O)NCCNc1cccc(NC(=O)c2cnc(NCCc3ccncc3)nc2NCCC)c1 [Compound 15]
> 9.00 | C=CC(=O)N[C@@H](C)C(=O)Nc1cccc(NC(=O)c2cnc(NCCc3ccncc3)nc2NCCC)c1 [Compound 16]
> 9.00 | C=CC(=O)NCC(=O)NC(CC)CCNC(=O)c1cnc(NCCc2ccncc2)nc1NCCC (stereo not shown) [Compound 17]
> 9.00 | CCCNc1nc(NCCc2ccncc2)ncc1C(=O)NCCC(CC)NC(=O)CNC(=O)/C=C/CN(C)C (stereo not shown) [Compound 18]
> 9.00 | C=CC(=O)N(C)CC(=O)NC(CC)CCNC(=O)c1cnc(NCCc2ccncc2)nc1NCCC (stereo not shown) [Compound 19]

pIC50 | Structure (SMILES)
> 9.00 | CCCNc1nc(NCCc2ccncc2)ncc1C(=O)NCCC(CC)NC(=O)CN(C)C(=O)/C=C/CN(C)C (stereo not shown) [Compound 20]
> 9.00 | CCCNc1nc(NCCc2ccncc2)ncc1C(=O)Nc1cccc(NC(=O)CNC(=O)/C=C/CN2CC(C)NC(C)C2)c1 (stereo not shown) [Compound 21]
> 9.00 | CCCNc1nc(NCCc2ccncc2)ncc1C(=O)Nc1ccc(C)c(NC(=O)CNC(=O)/C=C/CN(C)C)c1 [Compound 22]
> 9.00 | CCCNc1nc(NCCc2ccncc2)ncc1C(=O)NCCCNC(=O)CNC(=O)/C=C/CN(C)C [Compound 23]
> 9.00 | CCCNc1nc(NCCc2ccncc2)ncc1C(=O)Nc1cccc(NC(=O)[C@H](C)NC(=O)/C=C/CN(C)C)c1 [Compound 24]
> 9.00 | CCCNc1nc(Nc2ccc(C(N)=O)cc2)ncc1C(=O)NCCCNC(=O)[C@H](C)N(C)C(=O)/C=C/CN(C)C [Compound 25]
> 9.00 | CCCNc1nc(Nc2ccc(C(N)=O)cc2)ncc1C(=O)NC1CCCC(NC(=O)CN(C)C(=O)/C=C/CN(C)C)C1 (stereo not shown) [Compound 26]
> 9.00 | CCCNc1nc(Nc2ccc(C(N)=O)cc2)ncc1C(=O)Nc1cccc(NC(=O)[C@H](C)N(C)C(=O)/C=C/CN(C)C)c1 [Compound 27]
> 9.00 | CCCNc1nc(Nc2ccc3cnccc3c2)ncc1C(=O)Nc1cccc(NC(=O)[C@H](C)N(C)C(=O)/C=C/CN(C)C)c1 [Compound 28]
> 9.00 | CCCNc1nc(Nc2ccc(C(N)=O)cc2)ncc1C#Cc1cccc(NC(=O)[C@H](C)N(C)C(=O)/C=C/CN(C)C)c1 [Compound 29]
> 9.00 | CCCNc1nc(NCCc2ccncc2)ncc1C(=O)Nc1cccc(NC(=O)[C@H](C)N(C)C(=O)/C=C/CN(C)C)c1 [Compound 30]
8.00 to 9.00 | CCCNc1nc(Nc2ccc(C(N)=O)cc2)ncc1C#Cc1cccc(NCCNC(=O)/C=C/CN(C)C)c1 [Compound 31]
> 9.00 | CCCNc1nc(Nc2ccc(C(N)=O)cc2)ncc1C(=O)Nc1cccc(NC(=O)[C@H](C)N(C)C(=O)/C=C/CN2CC(O)C2)c1 [Compound 32]
8.00 to 9.00 | CCCNc1nc(Nc2cccc(C#N)c2)ncc1C#CCCCNC(=O)[C@H](C)N(C)C(=O)/C=C/CN(C)C [Compound 33]
> 9.00 | CCCNc1nc(Nc2cccc(F)c2)ncc1C#CCCCNC(=O)[C@H](C)N(C)C(=O)/C=C/CN(C)C [Compound 34]
> 9.00 | CCCNc1nc(NCCc2ccncc2)ncc1C#Cc1cccc(NC(=O)[C@H](C)N(C)C(=O)/C=C/CN(C)C)c1 [Compound 35]
> 9.00 | C[C@@H](C(=O)Nc1cccc(C#Cc2cnc(NCCc3ccncc3)nc2N2CCOCC2)c1)N(C)C(=O)/C=C/CN(C)C [Compound 36]
> 9.00 | CCCN(C)c1nc(NCCc2ccncc2)ncc1C#Cc1cccc(NC(=O)[C@H](C)N(C)C(=O)/C=C/CN(C)C)c1 [Compound 37]

Structure (SMILES) | pIC50
C=CC(=O)NCC(=O)Nc1cccc(NC(=O)c2cnc(NCCc3ccncc3)nc2NCCC)c1 [Compound 2] | > 9.00
